Measurements taken from US20070207957A1, “Composition For Accelerating Alcohol Metabolism Or Relieving Fatigue By Gluconeogenesis” (Kirin Beer Kabushiki Kaisha, priority 2004, published 2007).
Where two headings read alike, the source gives them in different places.

What was measured:
[1] = Blood ethanol level in rats, caffeine+serine administered before ethanol; assay type: in vivo, Wistar rats; settings: 20 mg/kg caffeine and/or 0.1 g/kg serine orally 1 h before ethanol 2 g/kg, blood 1, 2, 3 and 5 hours, vs water control
Procedure: Four groups were prepared in total as follow. A control group of rats (n=6) was prepared by orally administering water. […] . […] Blood was taken from the cervical vein 1, 2, 3 and 5 hours after the administration. Immediately upon taking, the blood was mixed well with a solution containing 0.6N perchlorate and 0.9% NaCl, and centrifugally separated at 3000 rpm for 20 minutes to remove protein. The ethanol concentration of the supernatant was measured with a gas chromatograph manufactured by Shimazu Corporation (Eriksson C J P et al., Anal. Biochem. Vol. 125, 259-263 (1982)).

[2] = Ethanol metabolism in human (ND), sample intake before ethanol: blood levels; assay type: in vivo; settings: for blood ethanol level: human ALDH2*1/2 (ND), 3 mg/kg caffeine and/or 30 mg/kg serine orally 1 h before 0.4 g/kg ethanol, 30-180 minutes, vs control; for blood acetaldehyde level: human ND, 3 mg/kg caffeine and/or 30 mg/kg serine 1 h before 0.4 g/kg ethanol
Procedure: The subjects were asked to have no food and water from wake-up time to participate in the test. A control test was performed by 8 persons (as volunteers). Of the 8 persons participated in the control test, 5 persons were chosen to perform a sample administration test. […] . One hour after the sample intake, 5% ethanol solution (white liquor diluted with water) was divided into 6 portions and orally taken 6 times at the intervals of 4 minutes so as to take 0.4 g ethanol per a body weight (kg). Blood was taken immediately before alcohol drinking, 30, 60, 90, 120, and 180 minutes after alcohol drinking. Immediately upon taking blood, blood was mixed with a solution containing 0.6N perchlorate and 0.9% NaCl, and centrifugally separated at 3000 rpm for 20 minutes to remove protein. The ethanol, acetaldehyde and acetate concentrations of the supernatant were measured by gas chromatography manufactured by Perkin Elmer Corporation or Shimazu Corporation (Eriksson C J P et al., Anal. Biochem. Vol. 125, 259-263 (1982)). […] Furthermore, using the same plasma, blood lactate and pyruvate levels were measured by use of determiner LA (Kyowa Medics, Tokyo, Japan) and determiner PA (Kyowa Medics), respectively. Based on the ratio of lactate/pyruvate, the ratio of NADH/NAD^+ was calculated. On the other hand, at the same time of taking blood, 9-rank subjective evaluation was performed by the subjects with respect to “feeling of drunk” (by scores 0 to 8) and comfortable feeling (uncomfortable (score −4) to comfortable (score 4)).

[3] = Recovery from hypoglycemia at the time of fatigue (swimming mice); assay type: in vivo, Balb/c mice; settings: exhausted mice; 80 mg/kg caffeine and/or 200 mg/kg serine orally; vs water control
Procedure: A swimming experiment of male Balb/c mice (Japan SLC) was performed under flowing water by use of a flowing-water vessel (developed by Matsumoto in Kyoto University). The mice (4 weeks old) were allowed to swim once in two different days at a flow rate of about 4.5 L/min (about 16 cm/sec) for 15 to 20 minutes to allow the mice to get use to the swimming environment. On the next week, these mice (5 weeks old) were fasted for 3 hours. After that, blood was taken from the tail and blood glucose level was measured by GLUTESTACE (Sanwa Kagaku Kenkyusho Co., Ltd.). Immediately after this, the mice were allowed to swim at a flow rate of about 5.5 L/min (about 19 cm/sec), in an intermittent manner. Intermittent swim was performed repeating a cycle consisting of 10-minute swim and 10-minute rest, twice, and then repeating a cycle consisting of 5-minute swim and 10-minute rest until the mice became too exhausted to swim. After the mice too exhausted to swim were allowed to leave alone for 15 minutes, the blood glucose level was checked. […]. A blood glucose level was measured with time.

[4] = rats; 20 mg/kg caffeine and/or 0.1 g/kg tryptophan 1 h before ethanol; blood two hours after ethanol
Procedure: One hour later, ethanol was administered. After further two hours, blood was taken from the aorta abdominalis under anesthesia with pentobarbital (Sigma).

[5] = mice; Kakuda T et al. 1996; cited from earlier work
[6] = Blood glucose level in rats after caffeine administration; settings: 100 mg/kg body weight caffeine orally, plasma two hours later, vs water control
[7] = test system: serine dehydratase (SDS); test: Liver mRNA expression after caffeine administration (RT-PCR), SDS; settings: rats, 100 mg/kg caffeine orally, two hours, corrected on housekeeping gene P0
[8] = rat, in vivo; cited from earlier work
[9] = Dissolution of serine in non-sugar coffee; settings: 100, 500, 1000, 1500 and 2000 mg serine in 100 ml coffee
[10] = Blood ethanol in rats, caffeine + each of 20 amino acids; settings: 0.1 g/kg amino acid together with 20 mg/kg caffeine 1 h before ethanol 2 g/kg, blood two hours after ethanol
Excerpt: One hour after the administration of each sample, ethanol (2 g/kg body weight) was orally administered. After further two hours, blood was taken from the aorta abdominalis under anesthesia with pentobarbital (Sigma).

[11] = Blood ethanol in rats, sample administered after ethanol; settings: 10 mg/kg caffeine and/or 100 mg/kg serine orally 1 h after ethanol 2 g/kg, blood five hours after ethanol, vs control

| SMILES | blood ethanol level [1] | blood ethanol level [2] | blood acetaldehyde level [2] | blood glucose level: recovery from hypoglycemia at the time of fatigue [3] | blood ethanol level [4] | amount needed to significantly reduce the blood ethanol level [5] [mg/kg body weight] | blood glucose level [6] | mRNA expression level of SDS in liver [7] | acute half lethal dose [8] [g/kg body weight] | dissolution in non-sugar coffee [9] | relative blood ethanol level compared to the caffeine-only group (regarded as 1) [10] | relative blood ethanol concentration [11] |
| --- | --- | --- | --- | --- | --- | --- | --- | --- | --- | --- | --- | --- |
| Cn1c(=O)c2c(ncn2C)n(C)c1=O [caffeine, 3,7-dihydro-1,3,7-trimethyl-1H-purine-2,6-dione, reference compound] | significantly decreased 2 hours after ethanol administration; however, a significant effect was not observed in other time point | rarely changed | did not significantly change | recovered from hypoglycemia | A slight downward tendency was observed in the caffeine administration group, but it is not significant change | 300 | increasing a blood glucose level | metabolism of serine and tryptophan was enhanced | – | – | – | – |
| N[C@@H](CO)C(=O)O [serine] | slightly decreased compared to the control group; however, this change observed in the all measurement time points had not a significance | rarely changed | did not significantly change | recovered from hypoglycemia | – | – | – | – | 14 | easily dissolved in non-sugar coffee without any appearance problem such as precipitation and turbidity | blood ethanol reduction effect was observed | A slight downward tendency was observed in the serine single administration group compared to the control group, but it was not significant change |
| N[C@@H](Cc1c[nH]c2ccccc12)C(=O)O [tryptophan] | – | – | – | – | No change was observed | – | – | – | – | – | blood ethanol reduction effect was observed | – |
